According to US7435847B2, “Preparation of solid ammonium glyphosate using organic solvent in extraction” (priority 2002, dated 2008):

Experiments:
[1] = saturation concentrations of ammonium glyphosate in different aqueous methanol solutions; type: physicochemical; details: 30° C.
Excerpt: The amount of gaseous ammonia introduced is 1.01-1.5 times by mole as that of glyphosate added. When the ammonia is not enough, the reaction will not be carried out completely to cause the product having relatively more glyphosate, and thus a part of the water-soluble solid ammonium glyphosate may not be dissolved due to very low the solubility of glyphosate in water. If the ammonia is introduced in excess, relatively more free ammonia will remain in the system, thereby the ammonia will escape in subsequent processes to result in the environmental pollution. A relatively simple method for judging the end point of the reaction is to measure the pH of the reaction system. The inventor believes that the pH should be kept at 5-8. The solubility of ammonium glyphosate varies with the concentration of the aqueous methanol solution, the higher the concentration of aqueous methanol solution is, the lower the solubility of ammonium glyphosate is. The saturation concentrations of ammonium glyphosate in different concentrations of the aqueous methanol solution at 30° C. are listed in Table 1.

[2] = concentration of aqueous solutions of ammonium glyphosate salt at room temperature; type: physicochemical; details: water
Excerpt: Wherein m is a positive integer from 1 to 3, the ammonium cation may link to the hydroxyl which is bonded with a carbonyl or a phosphoryl. As for the single molecule, m equals 1-3. The generally used ammonium glyphosate salt is a mono-ammonium salt, namely, m equals 1. However, it may not be deemed simply that the ammonium glyphosate salt obtained in practical production has m just equal to a positive integer, but a value in the range of 0.8-1.3. These substances have very high solubility in water and the concentration of their aqueous solutions may be more than 20% at room temperature. However, they have very low solubility in such organic solvents that are completely miscible with any proportion of water or have a relatively high solubility in water. Thus, after the reaction is ended, such organic solvent(s) is(are) added to the reaction solution to form a homogeneous solution with water in the system, thereby substantially decreasing the solubility of the ammonium glyphosate salt therein and crystallizing the salt out. Such solvents may include, or may be, alcohols and acetals, etc. or a mixture of two or more solvents. The alcohols may include monobase alcohols having 1-4 carbon atoms. It is preferred to use methanol, ethanol, propanol, butanol and methylal in terms of cost effective, which can be used alone or as a mixture of thereof. […]

[3] = 25° C.; cited from earlier work

SMILES	Saturation concentration (w/w) % ([1]; content of methanol 5 (w/w) %, aqueous methanol solution)	Saturation concentration (w/w) % ([1]; content of methanol 20 (w/w) %, aqueous methanol solution)	Saturation concentration (w/w) % ([1]; content of methanol 40 (w/w) %, aqueous methanol solution)	Saturation concentration (w/w) % ([1]; content of methanol 60 (w/w) %, aqueous methanol solution)	Saturation concentration (w/w) % ([1]; content of methanol 80 (w/w) %, aqueous methanol solution)	Saturation concentration (w/w) % ([1]; content of methanol 100 (w/w) %)	concentration of aqueous solution [2]	solubility of glyphosate in water [3] [g per 100 g water]
N.O=C(O)CNCP(=O)(O)O [ammonium glyphosate]	18.2 (w/w) %	8.9 (w/w) %	4.3 (w/w) %	1.5 (w/w) %	0.9 (w/w) %	0.6 (w/w) %	more than 20%	–
O=C(O)CNCP(=O)(O)O [glyphosate, N-phosphonomethyl glycine]	–	–	–	–	–	–	–	1.2
